The values below come from patent publication US20160009686A1, “VEGFR3 INHIBITORS” (CANCER THERAPEUTICS CRC PTY LIMITED, priority 2012, published 2016).

Structures are written as SMILES. Like-named read-outs stand apart in the source and are kept apart here.

In general, IC50 refers to the point on the concentration scale where inhibition reaches its midpoint.

This assay has as its target VEGFR3 cytoplasmic domain (Homo sapiens, UniProt P35916). The assay is described as follows: VEGFR3 Biochemical Assay (AlphaScreen). Particulars: GST-fusion enzyme, 500 μM ATP, 90 minutes at 30 degree Celsius (modified form in some cases: Hexa-His-fusion enzyme, 1 μM ATP). (In general: In Alpha technology, singlet oxygen from a donor bead excites a nearby acceptor bead.)

VEGFR3 cytoplasmic domain, sequence (P35916 798-1298 isoform P35916-1): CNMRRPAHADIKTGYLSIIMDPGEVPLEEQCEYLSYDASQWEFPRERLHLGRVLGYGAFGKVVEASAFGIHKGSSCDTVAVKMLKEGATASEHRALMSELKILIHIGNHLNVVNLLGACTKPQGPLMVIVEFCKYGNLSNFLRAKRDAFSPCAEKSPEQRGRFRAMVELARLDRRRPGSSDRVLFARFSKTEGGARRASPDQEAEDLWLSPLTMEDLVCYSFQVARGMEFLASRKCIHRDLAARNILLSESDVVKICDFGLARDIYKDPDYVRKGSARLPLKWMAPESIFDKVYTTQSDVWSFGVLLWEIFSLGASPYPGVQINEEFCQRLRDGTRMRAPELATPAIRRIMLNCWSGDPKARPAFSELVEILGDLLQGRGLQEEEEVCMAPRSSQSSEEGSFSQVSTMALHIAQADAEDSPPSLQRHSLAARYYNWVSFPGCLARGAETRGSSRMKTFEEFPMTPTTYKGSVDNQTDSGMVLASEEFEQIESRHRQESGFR

In the case of `Cc1cnc(Nc2cnn(C)c2)nc1CCc1ccccc1C(C)C(N)=O` (single isomer, unassigned) [Compound 51-1A, 2-(2-(2-(5-methyl-2-((1-methyl-1H-pyrazol-4-yl)amino)pyrimidin-4-yl)ethyl)phenyl)propanamide], the IC50 (read-out: IC50) was 25 nM.
With `Cc1cnc(Nc2cnn(C)c2)nc1CCc1ccccc1C(C)C(N)=O` (single isomer, unassigned) [Compound 51-2A, 2-(2-(2-(5-methyl-2-((1-methyl-1H-pyrazol-4-yl)amino)pyrimidin-4-yl)ethyl)phenyl)propanamide], the IC50 (read-out: IC50) stood at 41 nM.
The same measure, in the same setting: the value for `NC(=O)C1(c2ccccc2CCc2nc(Nc3ncco3)ncc2Cl)CC1` [Compound 11, 1-(2-(2-(5-Chloro-2-(oxazol-2-ylamino)pyrimidin-4-yl)ethyl)phenyl)cyclopropanecarboxamide] was 1300 nM; that for `NC(=O)C1(c2ccccc2CCc2nc(Nc3ccnnc3)ncc2Cl)CC1` [Compound 22, 1-(2-(2-(5-Chloro-2-(pyridazin-4-ylamino)pyrimidin-4-yl)ethyl)phenyl)cyclopropanecarboxamide] was 20 nM.
Compound `NC(=O)C1(c2ccccc2CCc2nc(Nc3ccccc3)ncc2Cl)CC1` [Compound 23, 1-(2-(2-(5-Chloro-2-(phenylamino)pyrimidin-4-yl)ethyl)phenyl)cyclopropanecarboxamide] had an IC50 (IC50 (nM)) of 11 nM.
`Cc1n[nH]cc1Nc1ncc(Cl)c(CCc2ccccc2C2(C(N)=O)CC2)n1` [Compound 25, 1-(2-(2-(5-Chloro-2-((3-methyl-1H-pyrazol-4-yl)amino)pyrimidin-4-yl)ethyl)phenyl)cyclopropanecarboxamide]: the IC50 (read-out: IC50) was 7 nM.
With `Cc1nn(C)cc1Nc1ncc(Cl)c(CCc2ccccc2C2(C(N)=O)CC2)n1` [Compound 26, 1-(2-(2-(5-Chloro-2-((1,3-dimethyl-1H-pyrazol-4-yl)amino)pyrimidin-4-yl)ethyl)phenyl)cyclopropanecarboxamide], under “read-out: IC50”, the IC50 was determined as 12 nM.
Take `Cc1cc(Nc2ncc(Cl)c(CCc3ccccc3C3(C(N)=O)CC3)n2)n[nH]1` [Compound 27, 1-(2-(2-(5-Chloro-2-((5-methyl-1H-pyrazol-3-yl)amino)pyrimidin-4-yl)ethyl)phenyl)cyclopropanecarboxamide]: where the note is “read-out: IC50”, the IC50 was 47 nM.
Still for that read-out and setting: the value for `Cn1ccc(Nc2ncc(Cl)c(CCc3ccccc3C3(C(N)=O)CC3)n2)n1` [Compound 28, 1-(2-(2-(5-Chloro-2-((1-methyl-1H-pyrazol-3-yl)amino)pyrimidin-4-yl)ethyl)phenyl)cyclopropanecarboxamide] was 268 nM; that for `NC(=O)C1(c2ccccc2CCc2nc(Nc3cnn(CC(F)(F)F)c3)ncc2Cl)CC1` [Compound 29, 1-(2-(2-(5-Chloro-2-((1-(2,2,2-trifluoroethyl)-1H-pyrazol-4-yl)amino)pyrimidin-4-yl)ethyl)phenyl)cyclopropanecarboxamide] was 8 nM.
On to `CC(C)n1cc(Nc2ncc(Cl)c(CCc3ccccc3C3(C(N)=O)CC3)n2)cn1` [Compound 30, 1-(2-(2-(5-Chloro-2-((1-isopropyl-1H-pyrazol-4-yl)amino)pyrimidin-4-yl)ethyl)phenyl)cyclopropanecarboxamide], for which, where the note is “read-out: IC50”, the IC50 came to 4 nM.
Same read-out and setting: the value for `N#Cc1ccc(Nc2ncc(Cl)c(CCc3ccccc3C3(C(N)=O)CC3)n2)cn1` [Compound 31, 1-(2-(2-(5-Chloro-2-((6-cyanopyridin-3-yl)amino)pyrimidin-4-yl)ethyl)phenyl)cyclopropanecarboxamide] was 48 nM; that for `CC(=O)c1ccc(Nc2ncc(Cl)c(CCc3ccccc3C3(C(N)=O)CC3)n2)cn1` [Compound 32, 1-(2-(2-(2-((6-Acetylpyridin-3-yl)amino)-5-chloropyrimidin-4-yl)ethyl)phenyl)cyclopropanecarboxamide] was 44 nM.
Same read-out and setting: the value for `CC(N)c1ccc(Nc2ncc(Cl)c(CCc3ccccc3C3(C(N)=O)CC3)n2)cn1` (stereo not shown) [Compound 33, 1-(2-(2-(2-((6-(1-Aminoethyl)pyridin-3-yl)amino)-5-chloropyrimidin-4-yl)ethyl)phenyl)cyclopropanecarboxamide] was 60 nM.
With `NC(=O)C1(c2ccccc2CCc2nc(Nc3cnn(C(F)F)c3)ncc2Cl)CC1` [Compound 34, 1-(2-(2-(5-Chloro-2-((1-(difluoromethyl)-1H-pyrazol-4-yl)amino)pyrimidin-4-yl)ethyl)phenyl)cyclopropanecarboxamide], the IC50 (read-out: IC50) turned out to be 7 nM.
On to `CC(C(N)=O)c1ccccc1CCc1nc(Nc2ccc(C3CCNCC3)nc2)ncc1Cl` (stereo not shown) [Compound 37, 2-(2-(2-(5-Chloro-2-((6-(piperidin-4-yl)pyridin-3-yl)amino)pyrimidin-4-yl)ethyl)phenyl)propanamide], for which the IC50 (read-out: IC50) is 31 nM.
Still for that read-out and setting: next, `CC(C(N)=O)c1ccccc1CCc1nc(Nc2ccc(C3CCN(C)CC3)nc2)ncc1Cl` (stereo not shown) [Compound 38, 2-(2-(2-(5-Chloro-2-((6-(1-methylpiperidin-4-yl)pyridin-3-yl)amino)pyrimidin-4-yl)ethyl)phenyl)propanamide]: 32 nM; `CC(C(N)=O)c1ccccc1CCc1nc(Nc2cccnc2)ncc1Cl` (stereo not shown) [Compound 39, 2-(2-(2-(5-Chloro-2-(pyridin-3-ylamino)pyrimidin-4-yl)ethyl)phenyl) propanamide]: 44 nM.
As to `CC(C(N)=O)c1ccccc1CCc1nc(Nc2cncnc2)ncc1Cl` (stereo not shown) [Compound 40, 2-(2-(2-(5-Chloro-2-(pyrimidin-5-ylamino)pyrimidin-4-yl)ethyl)phenyl) propanamide], where the note is “read-out: IC50”, the IC50 turned out to be 160 nM.
As to `Cc1ccc(Nc2ncc(Cl)c(CCc3ccccc3C(C)C(N)=O)n2)cn1` (stereo not shown) [Compound 41, 2-(2-(2-(5-chloro-2-(6-methylpyridin-3-ylamino)pyrimidin-4-yl)ethyl)phenyl) propanamide], the IC50 (read-out: IC50) is 45 nM.
Same read-out and setting: the value for `CC(C(N)=O)c1ccccc1CCc1nc(Nc2ccnnc2)ncc1Cl` (stereo not shown) [Compound 42, 2-(2-(2-(5-Chloro-2-(pyridazin-4-ylamino)pyrimidin-4-yl)ethyl)phenyl)propanamide] was 154 nM.
Regarding `CC(C(N)=O)c1ccccc1CCc1nc(Nc2cnn(C3CCNCC3)c2)ncc1Cl` (stereo not shown) [Compound 43, 2-(2-(2-(5-Chloro-2-(1-(piperidin-4-yl)-1H-pyrazol-4-ylamino)pyrimidin-4-yl)ethyl)phenyl) propanamide], the IC50 (read-out: IC50) was 12 nM.
Turning to `Cc1cnc(Nc2cn[nH]c2)nc1CCc1ccccc1C1(C(N)=O)CC1` [Compound 46, 1-(2-(2-(2-((1H-Pyrazol-4-yl)amino)-5-methylpyrimidin-4-yl)ethyl)phenyl)cyclopropanecarboxamide], the IC50 (read-out: IC50) amounted to 13 nM.
As to `Cc1cnc(Nc2cnn(C)c2)nc1CCc1ccccc1C1(C(N)=O)CC1` [Compound 47, 1-(2-(2-(5-Methyl-2-((1-methyl-1H-pyrazol-4-yl)amino)pyrimidin-4-yl)ethyl)phenyl)cyclopropanecarboxamide], the half-maximal inhibitory concentration (IC50) (read-out: IC50) turned out to be 5 nM.
Consider `Cc1cnc(Nc2cnn(C3CCN(C)CC3)c2)nc1CCc1ccccc1C1(C(N)=O)CC1` [Compound 48, 1-(2-(2-(5-Methyl-2-((1-(1-methylpiperidin-4-yl)-1H-pyrazol-4-yl)amino)pyrimidin-4-yl)ethyl)phenyl)cyclopropanecarboxamide], for which, under “read-out: IC50”, the IC50 worked out at 12 nM.
For `Cc1cnc(Nc2ccc(C3CCN(C)CC3)nc2)nc1CCc1ccccc1C1(C(N)=O)CC1` [Compound 49, 1-(2-(2-(5-Methyl-2-((6-(1-methylpiperidin-4-yl)pyridin-3-yl)amino)pyrimidin-4-yl)ethyl)phenyl)cyclopropanecarboxamide], the IC50 (read-out: IC50) came to 23 nM.
Take `Cc1cnc(Nc2ccc(C(C)N)cc2)nc1CCc1ccccc1C1(C(N)=O)CC1` (stereo not shown) [Compound 50, 1-(2-(2-(2-((4-(1-Aminoethyl)phenyl)amino)-5-methylpyrimidin-4-yl)ethyl)phenyl)cyclopropanecarboxamide]: the IC50 (read-out: IC50) was 46 nM.
The same measure, in the same setting: next, `NC(=O)C1(c2ccccc2CCc2nc(Nc3ccc(C4CCNCC4)cc3)ncc2C(F)(F)F)CCC1` [Compound 52, 1-(2-(2-(2-((4-(Piperidin-4-yl)phenyl)amino)-5-(trifluoromethyl)pyrimidin-4-yl)ethyl)phenyl)cyclobutanecarboxamide]: 23 nM; `NC(=O)C1(c2cccc(CCc3nc(Nc4cnn(C5CCNCC5)c4)ncc3C(F)(F)F)c2)CC1` [Compound 53, 1-(3-(2-(2-((1-(Piperidin-4-yl)-1H-pyrazol-4-yl)amino)-5-(trifluoromethyl)pyrimidin-4-yl)ethyl)phenyl)cyclopropanecarboxamide]: 228 nM.
Take `CC(C(N)=O)c1ccccc1CCc1nc(Nc2cn[nH]c2)ncc1C(F)(F)F` (stereo not shown) [Compound 54, 2-(2-(2-(2-((1H-Pyrazol-4-yl)amino)-5-(trifluoromethyl)pyrimidin-4-yl)ethyl)phenyl)propanamide]: under “read-out: IC50”, the IC50 worked out at 17 nM.
Turning to `COc1ccc(Nc2ncc(C(F)(F)F)c(CCc3ccccc3C(C)C(N)=O)n2)cn1` (stereo not shown) [Compound 61, 2-(2-(2-(2-((6-Methoxypyridin-3-yl)amino)-5-(trifluoromethyl)pyrimidin-4-yl)ethyl)phenyl) propanamide], the IC50 (read-out: IC50) was determined as 118 nM.
Same read-out and setting: next, `CC(C(N)=O)c1ccccc1CCc1nc(Nc2ccc(C3CCNCC3)nc2)ncc1C(F)(F)F` (stereo not shown) [Compound 62, 2-(2-(2-(2-((6-(Piperidin-4-yl)pyridin-3-yl)amino)-5-(trifluoromethyl)pyrimidin-4-yl)ethyl)phenyl)propanamide]: 492 nM.
Same read-out and setting: next, `CC(C(N)=O)c1ccccc1CCc1nc(Nc2ccc(C3CCN(C)CC3)nc2)ncc1C(F)(F)F` (stereo not shown) [Compound 63, 2-(2-(2-(2-((6-(1-Methylpiperidin-4-yl)pyridin-3-yl)amino)-5-(trifluoromethyl)pyrimidin-4-yl)ethyl)phenyl)propanamide]: 28 nM; `Cn1cc(Nc2ncc(C(F)(F)F)c(CCc3ccccc3C3(C(N)=O)CC3)n2)cn1` [Compound 65, 1-(2-(2-(2-((1-Methyl-1H-pyrazol-4-yl)amino)-5-(trifluoromethyl)pyrimidin-4-yl)ethyl)phenyl)cyclopropanecarboxamide]: 3 nM.
